In patent publication US11786503B2, “Pharmaceutical compositions and methods for countering chemotherapy induced cardiotoxicity” (Auransa Inc., priority 2016, dated 2023):
Where two headings read alike, the source gives them in different places.

How the values were obtained:
MDA-MB-231 cells = conditions: co-treated with increasing concentrations of doxorubicin, 72 hours
A549 cells = assay: doxorubicin-mediated death of lung cancer cells, CellTiter-Glo (Example 22); format: cell-based; conditions: co-treated with increasing concentrations of doxorubicin, 72 hours
Method: A549 cells (lung cancer) were cultured for 1 day before performing experiments. […] XLFit was used for curve fitting.

[1] = system: cardiomyocytes differentiated from induced pluripotent stem cells; assay: long term toxicity on electrophysiology, active electrodes (Example 24); format: cell-based; conditions: for decrease in the number of active electrodes relative to the mock-treated sample: various concentrations, at least 5 days
Method: Samples were either mock-treated with 0.1% DMSO, or treated with various concentrations of the indicated drug. Following treatment, the percentage of active electrodes in each sample was measured for at least 5 days. Percentage of active electrodes was quantified and graphed in a time course.

[2] = system: cardiomyocytes differentiated from induced pluripotent stem cells; assay: acute toxicity on electrophysiology, MEA beat period and field potential duration (Example 23); format: cell-based; conditions: at least 20 minutes; for difference in beat period or field potential duration vs control samples: lower drug concentration; for acute drug toxicity on beating: higher concentrations
Method: Samples were either mock-treated with 0.1% DMSO, or treated with increasing concentrations of the indicated drug for at least 20 minutes. Cardiomyocytes were treated with the hERG potassium channel blocker E4031 as a control. Following treatment, the beat period and field potential duration (FPD) were measured in each sample using the MEA.

[3] = system: Human iPSC-derived cardiomyocytes; assay: cells; format: cell-based; conditions: Cardiomyocyte, 0.5 μM of Doxorubicin, 72 hours, read-out: EC50 for rescue from DOX-induced cell death
Method: To measure the rescue rates from the DOX-induced cell death in cardiomyocytes, the protective effect of myricetin was directly compared with that of dexraxozane (DEX; standard of care). Human iPSC-derived cardiomyocytes were treated with 0.5 μM of Doxorubicin and increasing concentrations of myricetin (MYR, circle) or dexraxozane (DEX, square). […] Cells were imaged using INCell Analyzer2200 (GE). […] (n=3).
Next, the ability of MYR to confer cardioprotection was directly compared with that of DHM as these two compounds display distinctive property in their structures and TOPOI inhibition activity. […] Human iPSC-derived cardiomyocytes were treated with 0.5 μM of Doxorubicin and increasing concentrations of myricetin (MYR, circle) or dihydromyricetin (DHM, triangle).

TOPOIIβ = target: T1, TOPOIIβ (Homo sapiens, UniProt Q02880); assay: kDNA decatenation assay, TOPOIIβ; format: biochemical; conditions: even at extreme concentrations (>200 μM);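 note: kinetoplast DNA incubated with one unit of TOPOIIβ at 37 °C for 30 min, decatenated product resolved on 1% agarose gel, inhibition scored from relative band intensity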
T1 construct: purchased Inspiralis

[4] = system: Cardiomyocytes (human iPSC-derived); assay: doxorubicin-induced apoptosis, CellEvent dye, 3 days (Example 4); format: cell-based; conditions: Cardiomyocyte, 72 h, co-treated with 1 μM of doxorubicin, read-out: IC50 for protective effects against apoptosis
Method: Cardiomyocytes were prepared as described above. […] Following treatment, the samples were incubated with a CellEvent dye to indicate apoptosis-positive cells, and a second dye to identify cell nuclei.

TOPOIIα = target: T2, TOPOIIα (Homo sapiens, UniProt P11388); assay: kDNA decatenation assay, TOPOIIα; format: biochemical; conditions: even at extreme concentrations (>200 μM);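 note: kDNA incubated with one unit of TOPOIIα at 37 °C for 30 min, decatenated product resolved on 1% agarose gel, inhibition from relative band intensity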
T2 construct: purchased Inspiralis

[5] = system: Human iPSC-derived cardiomyocytes; assay: DOX-induced DNA double strand break, γH2AX immunostaining; format: cell-based; conditions: 48 hours; for IC50: Homo sapiens, Cardiomyocyte, read-out: IC50, concentration at which DOX-induced double strand break was reduced to 50%, 0.5 μM of doxorubicin
C57BL/16 mice = assay: acute anthracycline-induced cardiotoxicity model, echocardiography (Example 16); format: in vivo
Description: An acute anthracycline-induced cardiotoxicity model was established in 9-10 week old C57BL/16 mice obtained from The Jackson Laboratory. […] General health of the animals was monitored on a daily basis throughout the course of the study. […] Left ventricular (LV) M-mode images were obtained in the two-dimensional short axis view close to the papillary muscles. Tracings of endocardial tissue during systole and diastole were made off line.

[6] = system: Human iPSC-derived cardiomyocytes; assay: doxorubicin-induced mitochondrial toxicity, TMRM signal, 2 days (Example 2); format: cell-based; conditions: co-treated with 1.25 μM doxorubicin and 79 μM myricetin, compared to 1.25 μM doxorubicin alone
Method: Following treatment, the samples were incubated with a tetramethylrhodamine methyl ester (TMRM) dye to indicate mitochondrial health, and Hoechst 33342 to identify cell nuclei. Cells were imaged using the INCell Analyzer2200.

[7] = system: human induced pluripotent stem cell-derived cardiomyocytes (iPSC-CM)
TOPOIIβ mRNA expression = TOPOIIβ mRNA expression in cardiomyocytes; format: cell-based
[8] = system: sorafenib treated cardiomyocytes; assay: sorafenib-induced contractile dysfunction (Example 14); format: cell-based, human; conditions: 5 μM sorafenib treated cardiomyocytes
[9] = system: Human iPSC-derived cardiomyocytes; assay: contractility, beat rate by Pulse video, 3 days (Example 3); format: cell-based; conditions: 72 hours, mock-treated 33.33
[10] = system: Human iPSC-derived cardiomyocytes; assay: DOX-induced sarcomere disruption, Cardiac Troponin T immunostaining (Example 8); format: cell-based; conditions: DOX (0.5 μM) plus MYR (100 μM), 72 hours
Method: DOX-induced cell death is often manifested by severity of structural disruptions of cardiomyocyte organization (e.g., sarcomere). To assess the protective effect of MYR against DOX-induced sarcomere disruption, human iPSC-derived cardiomyocytes were treated with DMSO, DOX (0.5 μM), or DOX plus MYR (100 μM). After 72 hours of treatment, cells were immunostained with antibody against Cardiac Troponin T (Abcam) to show sarcomeric organization in of the heart cells.

cardiomyocytes = assay: bortezomib-induced cardiotoxicity (Example 14); format: cell-based, human; conditions: 100 μM myricetin
TOPOIIα expression = assay: TOPOIIα mRNA expression in cardiomyocytes; format: cell-based; conditions: myricetin in the presence of DOX
[11] = system: Doxorubicin treated human iPSC-derived cardiomyocytes; assay: iPSC-CM protection by myricetin analogs (Table 1); format: cell-based; conditions: Homo sapiens
[12] = system: Human stem cell derived cardiomyocytes; assay: sunitinib-induced cell death (Example 14); format: cell-based; conditions: sunitinib (10 μM) plus MYR (1 to 100 μM), 72 hours
[13] = system: Human iPSC-derived cardiomyocytes; assay: DOX-induced contractility dysfunction, Pulse video, 48 hours (Example 7); format: cell-based; conditions: DOX (0.5 μM) plus MYR (100 μM), as compared to DEX (100 μM)
topoisomerase IIβ = topoisomerase IIβ (Homo sapiens, UniProt Q02880); conditions: 100 μM, 24 hours, iPSC-CMs
[14] = MYR 40 mg/kg i.p. 30 minutes prior to doxorubicin 20 mg/kg, day 5
[15] = MYR 40 mg/kg i.p., 2-fold higher than doxorubicin

T2 sequence (P11388 whole entry): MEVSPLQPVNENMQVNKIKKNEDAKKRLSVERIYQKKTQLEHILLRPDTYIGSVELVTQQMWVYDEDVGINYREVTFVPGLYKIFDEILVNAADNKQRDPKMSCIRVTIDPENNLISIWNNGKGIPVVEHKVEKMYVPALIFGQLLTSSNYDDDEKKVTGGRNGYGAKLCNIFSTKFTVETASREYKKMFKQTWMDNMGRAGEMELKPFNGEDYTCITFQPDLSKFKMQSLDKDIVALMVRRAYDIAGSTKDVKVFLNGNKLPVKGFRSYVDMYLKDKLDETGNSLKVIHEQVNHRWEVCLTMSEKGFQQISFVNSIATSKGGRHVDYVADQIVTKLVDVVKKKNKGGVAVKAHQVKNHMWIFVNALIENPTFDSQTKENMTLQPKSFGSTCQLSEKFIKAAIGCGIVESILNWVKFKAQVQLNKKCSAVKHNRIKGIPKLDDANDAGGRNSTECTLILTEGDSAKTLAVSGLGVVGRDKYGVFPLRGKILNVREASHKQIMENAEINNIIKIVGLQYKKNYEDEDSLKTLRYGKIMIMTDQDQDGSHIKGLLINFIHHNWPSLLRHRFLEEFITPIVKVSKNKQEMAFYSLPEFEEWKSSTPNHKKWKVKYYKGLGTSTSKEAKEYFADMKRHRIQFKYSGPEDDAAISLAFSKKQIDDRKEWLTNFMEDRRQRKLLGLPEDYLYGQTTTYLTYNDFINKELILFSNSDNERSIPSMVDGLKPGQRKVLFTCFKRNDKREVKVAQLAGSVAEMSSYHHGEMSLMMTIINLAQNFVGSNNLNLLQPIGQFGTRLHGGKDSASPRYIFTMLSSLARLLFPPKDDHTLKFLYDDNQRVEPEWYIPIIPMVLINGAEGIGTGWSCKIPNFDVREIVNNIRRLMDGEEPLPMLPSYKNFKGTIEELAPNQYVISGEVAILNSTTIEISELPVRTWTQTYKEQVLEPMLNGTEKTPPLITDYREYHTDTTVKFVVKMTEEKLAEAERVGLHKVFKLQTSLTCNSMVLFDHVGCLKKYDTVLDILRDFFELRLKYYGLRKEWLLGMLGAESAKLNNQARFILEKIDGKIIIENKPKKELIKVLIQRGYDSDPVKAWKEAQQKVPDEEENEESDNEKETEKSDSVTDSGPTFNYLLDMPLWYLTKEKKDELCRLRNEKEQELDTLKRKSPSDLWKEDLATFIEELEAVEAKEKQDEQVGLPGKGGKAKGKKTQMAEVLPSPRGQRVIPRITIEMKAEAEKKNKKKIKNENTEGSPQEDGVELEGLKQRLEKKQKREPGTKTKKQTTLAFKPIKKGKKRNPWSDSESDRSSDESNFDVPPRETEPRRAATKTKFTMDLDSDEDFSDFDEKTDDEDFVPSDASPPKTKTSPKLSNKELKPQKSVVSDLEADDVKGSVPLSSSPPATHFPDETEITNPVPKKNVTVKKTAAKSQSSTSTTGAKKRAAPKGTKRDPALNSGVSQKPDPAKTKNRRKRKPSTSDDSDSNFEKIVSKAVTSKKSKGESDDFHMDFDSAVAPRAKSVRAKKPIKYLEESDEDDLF
Chain of topoisomerase IIβ (Q02880 whole entry): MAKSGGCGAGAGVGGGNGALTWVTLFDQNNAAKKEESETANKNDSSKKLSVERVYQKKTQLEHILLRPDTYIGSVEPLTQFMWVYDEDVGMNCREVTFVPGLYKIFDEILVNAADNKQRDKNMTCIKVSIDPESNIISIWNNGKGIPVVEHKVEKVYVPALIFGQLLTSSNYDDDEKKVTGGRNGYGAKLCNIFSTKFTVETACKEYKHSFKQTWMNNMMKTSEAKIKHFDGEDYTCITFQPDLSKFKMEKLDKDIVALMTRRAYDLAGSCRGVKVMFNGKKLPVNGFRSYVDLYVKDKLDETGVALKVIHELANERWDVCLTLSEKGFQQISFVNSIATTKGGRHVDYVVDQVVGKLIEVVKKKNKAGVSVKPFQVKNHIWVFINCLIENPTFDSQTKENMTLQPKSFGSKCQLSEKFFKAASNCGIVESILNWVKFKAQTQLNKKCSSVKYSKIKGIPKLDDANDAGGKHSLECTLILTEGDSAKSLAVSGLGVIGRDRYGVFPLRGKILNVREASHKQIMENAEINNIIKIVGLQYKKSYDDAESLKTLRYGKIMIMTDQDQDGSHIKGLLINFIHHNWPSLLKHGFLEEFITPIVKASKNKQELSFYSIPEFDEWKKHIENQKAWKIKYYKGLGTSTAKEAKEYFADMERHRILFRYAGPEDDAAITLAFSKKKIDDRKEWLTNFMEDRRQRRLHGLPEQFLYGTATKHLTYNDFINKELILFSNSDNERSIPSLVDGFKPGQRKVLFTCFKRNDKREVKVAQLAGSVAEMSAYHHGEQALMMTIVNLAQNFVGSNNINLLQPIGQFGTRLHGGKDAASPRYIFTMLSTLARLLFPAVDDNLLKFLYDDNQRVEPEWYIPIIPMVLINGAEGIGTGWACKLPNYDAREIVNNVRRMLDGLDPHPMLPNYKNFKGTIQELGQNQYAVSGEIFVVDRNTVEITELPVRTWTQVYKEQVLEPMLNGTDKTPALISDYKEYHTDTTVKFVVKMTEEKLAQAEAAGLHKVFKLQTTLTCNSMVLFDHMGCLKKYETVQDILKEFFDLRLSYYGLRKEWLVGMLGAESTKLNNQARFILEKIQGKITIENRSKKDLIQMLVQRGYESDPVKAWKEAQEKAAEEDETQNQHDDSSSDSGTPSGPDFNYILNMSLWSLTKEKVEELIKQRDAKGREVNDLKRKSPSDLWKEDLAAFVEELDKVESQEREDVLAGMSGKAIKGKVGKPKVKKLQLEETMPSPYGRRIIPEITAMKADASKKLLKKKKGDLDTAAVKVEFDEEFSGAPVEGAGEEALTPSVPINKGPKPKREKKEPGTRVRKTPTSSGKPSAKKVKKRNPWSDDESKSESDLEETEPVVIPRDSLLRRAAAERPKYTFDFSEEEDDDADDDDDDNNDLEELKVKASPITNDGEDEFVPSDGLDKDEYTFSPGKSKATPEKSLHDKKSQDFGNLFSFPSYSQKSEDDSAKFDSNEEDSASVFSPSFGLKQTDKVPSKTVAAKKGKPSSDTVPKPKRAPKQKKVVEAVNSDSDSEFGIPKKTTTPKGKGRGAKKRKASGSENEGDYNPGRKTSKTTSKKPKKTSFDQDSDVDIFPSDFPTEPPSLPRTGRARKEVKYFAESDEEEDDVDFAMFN
T1 sequence (Q02880 whole entry): as above

Structure (SMILES): Nc1c(Br)cc(Br)cc1CN[C@H]1CC[C@H](O)CC1 [ambroxol]
- difference in the percentage of cell death vs doxorubicin without protective agent (MDA-MB-231 cells): no significant difference
- difference in the percentage of cell death vs doxorubicin without protective agent (A549 cells): no significant difference
- decrease in the number of active electrodes relative to the mock-treated sample [1]: no observable decrease
- difference in beat period or field potential duration vs control samples [2]: no appreciable difference

Structure (SMILES): O=C1c2c(O)cc(O)cc2O[C@H](c2cc(O)c(O)c(O)c2)[C@H]1O [dihydromyricetin]
- EC50 [3]: 14 µM
- TOPOIIβ enzymatic activity inhibition (TOPOIIβ): did not inhibit
- IC50 [4]: 40.5 µM
- TOPOIIα enzymatic activity inhibition (TOPOIIα): did not inhibit
- IC50 [5]: 11.3 µM

Structure (SMILES): CC(=O)N(O)CCCCCNC(=O)CCC(=O)N(O)CCCCCNC(=O)CCC(=O)N(O)CCCCCN [deferoxamine]
- difference in beat period or field potential duration vs control samples [2]: no appreciable difference

Structure (SMILES): O=C1C[C@@H](c2ccc(O)cc2)Oc2cc(O)cc(O)c21 [naringenin]
- acute drug toxicity on beating [2]: beating cessation
- difference in beat period or field potential duration vs control samples [2]: no appreciable difference

Structure (SMILES): Nc1ccc(O)c(C(=O)O)c1 [mesalamine]
- difference in the percentage of cell death vs doxorubicin without protective agent (MDA-MB-231 cells): no significant difference
- difference in the percentage of cell death vs doxorubicin without protective agent (A549 cells): no significant difference
- decrease in the number of active electrodes relative to the mock-treated sample [1]: no observable decrease

Structure (SMILES): C[C@@H]1O[C@@H](Oc2c(-c3cc(O)c(O)c(O)c3)oc3cc(O)cc(O)c3c2=O)[C@H](O)[C@H](O)[C@H]1O [myricitrin]
- IC50 [4]: 38.5 µM

Structure (SMILES): O=c1c(O)c(-c2cc(O)c(O)c(O)c2)oc2cc(O)cc(O)c12 [Compound 1, 3,5,7,3′,4′,5′-hexahydroxyflavone]
- improvement of EF (C57BL/16 mice; [14]): 10%
- improvement of FS (C57BL/16 mice; [14]): 7%
- rescue of EF dysfunction caused by doxorubicin (C57BL/16 mice; [15]): 49%
- rescue of FS dysfunction caused by doxorubicin (C57BL/16 mice; [15]): 52%
- TMRM signal (mitochondrial health) [6]: greater TMRM signal
- difference in the number of total cells, as compared to mock-treated control [7]: no significant difference
- reduction the number of total cells, as compared to mock-treated control ([7]; co-treated with myricetin and 1.25 μM doxorubicin, 72 hours): 27.57%
- EC50 [3]: 7.5 µM
- TOPOII expression (TOPOIIβ) in the presence of myricetin (TOPOIIβ mRNA expression; DOX plus myricetin): restored to a level close to normal
- TOPOIIβ mRNA expression (TOPOIIβ mRNA expression; compound alone, DOX at 24 and 48 hours): did not have any effect
- cardiac dysfunction corrected [8]: more than 80%
- beat rate ([9]; 79 μM myricetin alone): 39.33 beats per minute
- beat rate ([9]; co-treated with 79 μM myricetin and 1.25 μM doxorubicin): 37.33 beats per minute
- protection against DOX-induced sarcomere disruption [10]: significant protection
- IC50 [4]: 20.5 µM
- rescue of bortezomib-induced cardiotoxicity (cardiomyocytes): rescued
- expression of TOPOIIα (TOPOIIα expression): further repressed
- EC50 ([11]; Cardiomyocyte, approximate, read-out: EC50 for cardioprotection): 10 to 20 µM
- EC50 ([11]; iPSC-CM, read-out: iPSC-CM protection EC50): 14.5 µM
- Emax ([11]; iPSC-CM, read-out: iPSC-CM protection Max Effect (%)): 78%
- protection against sunitinib-induced cell death [12]: displayed protection
- protection against DOX-induced double strand break (γH2AX-positive cells) ([5]; DOX (0.5 μM) plus 100 μM agent): significant protection
- IC50 [5]: 5.28 µM
- correction of DOX-induced contractile dysfunction [13]: significantly corrected

Structure (SMILES): C[C@@H](CN1CC(=O)NC(=O)C1)N1CC(=O)NC(=O)C1 [dexrazoxane]
- difference in the percentage of cell death vs doxorubicin without protective agent (MDA-MB-231 cells): no significant difference
- difference in the percentage of cell death vs doxorubicin without protective agent (A549 cells): no significant difference
- topoisomerase IIβ protein levels (topoisomerase IIβ): marked disappearance of TOPOIIβ
- reduction in the number of active electrodes ([1]; 167 μM dexrazoxane, about 2 days post-treatment): ~25%
- reduction in the number of active electrodes ([1]; 167 μM dexrazoxane, about 3 days post-treatment): ~50%
- reduction in the number of active electrodes ([1]; 500 μM dexrazoxane, about 2 days post-treatment): ~50%
- reduction in the number of active electrodes ([1]; 500 μM dexrazoxane, about 3 days post-treatment): ~100%
- difference in beat period or field potential duration vs control samples [2]: no appreciable difference

Structure (SMILES): CC(=O)N[C@@H](CS)C(=O)O [N-acetyl cysteine]
- difference in the percentage of cell death vs doxorubicin without protective agent (MDA-MB-231 cells): no significant difference
- difference in the percentage of cell death vs doxorubicin without protective agent (A549 cells): no significant difference
- difference in beat period or field potential duration vs control samples [2]: no appreciable difference

Structure (SMILES): C[C@H](CCC(=O)O)[C@H]1CC[C@H]2[C@@H]3[C@H](O)C[C@@H]4C[C@H](O)CC[C@]4(C)[C@H]3CC[C@]12C [chenodeoxycholic acid]
- acute drug toxicity on beating [2]: beating cessation
- difference in beat period or field potential duration vs control samples [2]: no appreciable difference
